Measured values published in patent US10246444B2, “1,2-dithiolane and dithiol compounds useful in treating mutant EGFR-mediated diseases and conditions” (Sabila Biosciences LLC, priority 2017, dated 2019).
Read-outs that look alike come from different tables or passages of the source.

Assays:
[1] = biological target: EGFR WT (wild type EGFR) (Homo sapiens (Human), UniProt P00533); experiment: KINOMEscan competition binding assay (Kd); settings: read-out: Kd Activity Level (EGFR WT)
Procedure: (§1) The assay is performed by combining three components: DNA-tagged kinase; immobilized ligand; and a test compound. The ability of the test compound to compete with the immobilized ligand is measured via quantitative PCR of the DNA tag.
(§2) For most assays, kinase-tagged T7 phage strains were prepared in an E. coli host derived from the BL21 strain. E. coli were grown to log-phase and infected with T7 phage and incubated with shaking at 32° C. until lysis. The lysates were centrifuged and filtered to remove cell debris. The remaining kinases were produced in HEK-293 cells and subsequently tagged with DNA for qPCR detection. Streptavidin-coated magnetic beads were treated with biotinylated small molecule ligands for 30 minutes at room temperature to generate affinity resins for kinase assays. The liganded beads were blocked with excess biotin and washed with blocking buffer (SeaBlock (Pierce), 1% BSA, 0.05% Tween 20, 1 mM DTT) to remove unbound ligand and to reduce nonspecific binding. […] All reactions were performed in polystyrene 96-well plates in a final volume of 0.135 ml. […] The kinase concentration in the eluates was measured by qPCR.

[2] = biological target: T1, EGFR (L858R) (Homo sapiens (Human), UniProt P00533, L858R); experiment: KINOMEscan competition binding assay (Kd); settings: read-out: Kd Activity Level (EGFR L858R)
Procedure: as §1, §2

[3] = biological target: EGFR WT (Homo sapiens (Human), UniProt P00533); experiment: KinaseSeeker rabbit reticulocyte lysate competition binding assay (IC50)
Procedure: (§3) Luminescence readout translates into a highly sensitive and robust assay with low background and minimal interference from test compounds.
(§4) 10 mM stock solutions of test compounds were serially diluted in DMSO to make assay stocks. Prior to initiating IC50 determinations, the test compounds were evaluated for false positive against split-luciferase.
(§5) For kinase assays, Cfluc-kinase was translated along with Fos-Nfluc using a cell-free system (rabbit reticulocyte lysate) at 30° C. for 90 min. 24 uL aliquot of this lysate containing either 1 uL of DMSO (for no-inhibitor control) or compound solution in DMSO was incubated for 30 minutes at room temperature followed by 1 hour in presence of a kinase specific probe. 80 uL of luciferin assay reagent was added to each solution and luminescence was immediately measured on a luminometer.
(§6) The % Activity was plotted against compound concentration and the IC50 was determined for each compound using a 7-point curve (Jester, B. W.; et. al. J. Am. Chem. Soc. 2010, 132, 11727-11735. Jester, B. W.; et. al. J. Med. Chem. 2012, 55, 1526-1537).

[4] = biological target: T1, EGFR (L858R); experiment: as above
Procedure: as §3, §4, §5, §6

[5] = biological target: HER2 (Homo sapiens (Human), UniProt P04626); experiment: as above
Procedure: as §3, §4, §5, §6

[6] = biological target: EGFR S752-I759del (Homo sapiens (Human), UniProt P00533, DEL752-759); experiment: KINOMEscan competition binding assay (Kd); settings: KINOMEscan binding constant; read-out: Kd Activity Level (EGFR S752-I759del)
Procedure: as §1, §2

[7] = biological target: EGFR L858R/T790M (Homo sapiens (Human), UniProt P00533, L858R/T790M); experiment: KINOMEscan competition binding assay (Kd); settings: KINOMEscan binding constant; read-out: Kd Activity Level (EGFR L858R/T790M)
Procedure: as §1, §2

[8] = biological target: EGFR E746-A750del (Homo sapiens (Human), UniProt P00533, DEL746-750); experiment: KINOMEscan competition binding assay (Kd); settings: KINOMEscan binding constant; read-out: Kd Activity Level (EGFR E746-A750del)
Procedure: as §1, §2

[9] = read-out: IC50 Activity level EGFR L858R, KinaseSeeker, Table 18

HER2, sequence (P04626 23-1255): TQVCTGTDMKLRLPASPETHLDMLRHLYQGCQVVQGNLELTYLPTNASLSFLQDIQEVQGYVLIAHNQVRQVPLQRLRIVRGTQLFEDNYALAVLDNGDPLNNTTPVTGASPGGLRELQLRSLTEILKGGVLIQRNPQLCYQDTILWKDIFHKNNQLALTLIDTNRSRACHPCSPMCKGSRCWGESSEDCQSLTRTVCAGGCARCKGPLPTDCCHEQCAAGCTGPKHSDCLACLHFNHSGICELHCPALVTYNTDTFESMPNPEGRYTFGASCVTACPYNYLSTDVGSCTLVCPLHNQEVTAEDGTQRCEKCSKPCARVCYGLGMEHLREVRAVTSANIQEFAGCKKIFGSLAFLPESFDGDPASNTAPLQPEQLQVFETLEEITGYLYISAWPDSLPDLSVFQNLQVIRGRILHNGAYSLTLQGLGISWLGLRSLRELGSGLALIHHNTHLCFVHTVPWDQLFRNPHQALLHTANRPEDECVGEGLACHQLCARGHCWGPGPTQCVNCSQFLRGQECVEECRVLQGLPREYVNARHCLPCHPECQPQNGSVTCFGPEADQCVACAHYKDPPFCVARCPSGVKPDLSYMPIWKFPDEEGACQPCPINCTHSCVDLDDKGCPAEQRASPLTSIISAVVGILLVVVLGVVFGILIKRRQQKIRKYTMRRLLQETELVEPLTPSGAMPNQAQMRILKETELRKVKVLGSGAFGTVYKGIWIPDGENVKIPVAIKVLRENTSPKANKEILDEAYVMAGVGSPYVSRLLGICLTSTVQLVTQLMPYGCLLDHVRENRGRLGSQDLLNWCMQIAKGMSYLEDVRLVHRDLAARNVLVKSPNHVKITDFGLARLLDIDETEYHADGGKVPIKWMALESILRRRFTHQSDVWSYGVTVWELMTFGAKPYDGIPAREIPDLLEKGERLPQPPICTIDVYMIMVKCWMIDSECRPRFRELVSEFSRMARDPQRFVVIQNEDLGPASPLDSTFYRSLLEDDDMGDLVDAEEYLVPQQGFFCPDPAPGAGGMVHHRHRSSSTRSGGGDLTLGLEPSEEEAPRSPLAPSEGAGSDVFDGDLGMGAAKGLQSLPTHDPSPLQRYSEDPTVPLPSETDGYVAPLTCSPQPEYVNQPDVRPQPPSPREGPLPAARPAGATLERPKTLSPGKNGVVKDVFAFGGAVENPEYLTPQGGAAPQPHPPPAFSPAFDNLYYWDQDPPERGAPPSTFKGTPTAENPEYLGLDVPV
EGFR S752-I759del, sequence (P00533 other isoform, or with tags, fused parts or gaps del 1-668/del 752-759/del 1012-1210 limits assumed): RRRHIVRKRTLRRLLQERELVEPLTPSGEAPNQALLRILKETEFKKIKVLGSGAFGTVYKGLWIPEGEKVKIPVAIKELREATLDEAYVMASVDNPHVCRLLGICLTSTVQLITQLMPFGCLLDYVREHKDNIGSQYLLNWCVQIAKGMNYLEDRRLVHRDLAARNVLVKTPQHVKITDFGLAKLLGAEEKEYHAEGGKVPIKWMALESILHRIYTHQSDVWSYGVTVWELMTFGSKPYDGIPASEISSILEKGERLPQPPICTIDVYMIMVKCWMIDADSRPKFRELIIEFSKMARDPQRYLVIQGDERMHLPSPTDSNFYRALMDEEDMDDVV
T1 sequence (P00533 25-1210 L858R): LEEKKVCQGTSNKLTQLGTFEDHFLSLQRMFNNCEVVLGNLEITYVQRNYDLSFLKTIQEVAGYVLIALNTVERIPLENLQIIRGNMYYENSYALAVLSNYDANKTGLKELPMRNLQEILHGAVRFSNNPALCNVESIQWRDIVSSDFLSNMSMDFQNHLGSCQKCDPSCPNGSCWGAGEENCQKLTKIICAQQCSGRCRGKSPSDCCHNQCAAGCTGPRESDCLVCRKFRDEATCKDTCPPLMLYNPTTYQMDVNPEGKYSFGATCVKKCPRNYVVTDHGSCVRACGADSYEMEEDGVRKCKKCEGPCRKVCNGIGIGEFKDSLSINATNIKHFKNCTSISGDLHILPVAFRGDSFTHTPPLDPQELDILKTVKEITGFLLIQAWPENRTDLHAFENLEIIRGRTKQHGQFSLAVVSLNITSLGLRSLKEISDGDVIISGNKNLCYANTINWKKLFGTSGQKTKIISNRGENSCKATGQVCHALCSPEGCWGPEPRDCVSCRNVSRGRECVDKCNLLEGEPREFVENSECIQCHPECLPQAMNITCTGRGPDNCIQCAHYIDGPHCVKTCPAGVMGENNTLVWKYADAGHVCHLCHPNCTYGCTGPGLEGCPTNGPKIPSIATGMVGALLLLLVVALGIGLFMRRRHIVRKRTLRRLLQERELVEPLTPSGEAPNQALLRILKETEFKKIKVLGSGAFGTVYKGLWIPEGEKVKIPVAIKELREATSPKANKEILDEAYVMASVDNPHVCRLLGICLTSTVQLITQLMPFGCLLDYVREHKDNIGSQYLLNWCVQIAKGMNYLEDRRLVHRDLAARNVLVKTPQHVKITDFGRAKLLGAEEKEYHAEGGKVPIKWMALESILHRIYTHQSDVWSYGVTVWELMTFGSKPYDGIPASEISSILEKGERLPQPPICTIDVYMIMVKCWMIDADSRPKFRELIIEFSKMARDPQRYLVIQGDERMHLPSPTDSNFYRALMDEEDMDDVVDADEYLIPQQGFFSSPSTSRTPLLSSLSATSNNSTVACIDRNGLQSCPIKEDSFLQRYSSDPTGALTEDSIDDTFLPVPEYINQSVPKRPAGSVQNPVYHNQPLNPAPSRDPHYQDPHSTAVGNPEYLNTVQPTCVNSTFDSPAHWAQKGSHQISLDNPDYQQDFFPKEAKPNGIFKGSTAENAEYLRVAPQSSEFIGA
EGFR E746-A750del, sequence (P00533 other isoform, or with tags, fused parts or gaps del E746-A750): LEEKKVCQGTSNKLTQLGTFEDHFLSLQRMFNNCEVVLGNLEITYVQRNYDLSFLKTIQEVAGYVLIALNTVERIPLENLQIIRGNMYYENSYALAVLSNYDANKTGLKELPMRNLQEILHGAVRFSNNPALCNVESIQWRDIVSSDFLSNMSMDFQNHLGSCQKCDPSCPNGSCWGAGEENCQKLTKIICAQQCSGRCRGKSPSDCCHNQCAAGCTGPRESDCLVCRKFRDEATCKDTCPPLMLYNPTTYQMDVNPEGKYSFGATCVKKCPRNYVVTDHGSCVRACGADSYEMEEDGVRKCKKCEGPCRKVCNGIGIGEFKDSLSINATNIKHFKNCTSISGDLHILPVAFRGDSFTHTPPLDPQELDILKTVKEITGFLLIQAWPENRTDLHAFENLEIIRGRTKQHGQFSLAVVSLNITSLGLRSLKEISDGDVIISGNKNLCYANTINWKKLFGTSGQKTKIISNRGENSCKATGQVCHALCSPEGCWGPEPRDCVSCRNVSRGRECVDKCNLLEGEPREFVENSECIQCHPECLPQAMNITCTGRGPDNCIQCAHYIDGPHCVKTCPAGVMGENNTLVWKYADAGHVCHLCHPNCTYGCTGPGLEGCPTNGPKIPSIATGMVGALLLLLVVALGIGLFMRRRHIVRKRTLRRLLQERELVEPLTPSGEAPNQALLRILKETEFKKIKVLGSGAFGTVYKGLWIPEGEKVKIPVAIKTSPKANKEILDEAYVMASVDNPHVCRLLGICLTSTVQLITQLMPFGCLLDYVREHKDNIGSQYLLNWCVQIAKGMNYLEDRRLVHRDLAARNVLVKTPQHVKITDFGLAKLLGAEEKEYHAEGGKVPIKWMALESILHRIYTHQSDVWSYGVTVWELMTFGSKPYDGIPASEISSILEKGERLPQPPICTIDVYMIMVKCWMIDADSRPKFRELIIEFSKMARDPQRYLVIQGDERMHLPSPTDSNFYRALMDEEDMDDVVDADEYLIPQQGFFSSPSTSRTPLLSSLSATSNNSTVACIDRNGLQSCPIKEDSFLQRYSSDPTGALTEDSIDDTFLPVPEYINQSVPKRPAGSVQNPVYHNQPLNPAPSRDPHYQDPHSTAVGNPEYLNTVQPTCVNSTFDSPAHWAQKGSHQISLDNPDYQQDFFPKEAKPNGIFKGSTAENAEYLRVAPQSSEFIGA
EGFR WT (wild type EGFR), sequence (P00533 25-1210): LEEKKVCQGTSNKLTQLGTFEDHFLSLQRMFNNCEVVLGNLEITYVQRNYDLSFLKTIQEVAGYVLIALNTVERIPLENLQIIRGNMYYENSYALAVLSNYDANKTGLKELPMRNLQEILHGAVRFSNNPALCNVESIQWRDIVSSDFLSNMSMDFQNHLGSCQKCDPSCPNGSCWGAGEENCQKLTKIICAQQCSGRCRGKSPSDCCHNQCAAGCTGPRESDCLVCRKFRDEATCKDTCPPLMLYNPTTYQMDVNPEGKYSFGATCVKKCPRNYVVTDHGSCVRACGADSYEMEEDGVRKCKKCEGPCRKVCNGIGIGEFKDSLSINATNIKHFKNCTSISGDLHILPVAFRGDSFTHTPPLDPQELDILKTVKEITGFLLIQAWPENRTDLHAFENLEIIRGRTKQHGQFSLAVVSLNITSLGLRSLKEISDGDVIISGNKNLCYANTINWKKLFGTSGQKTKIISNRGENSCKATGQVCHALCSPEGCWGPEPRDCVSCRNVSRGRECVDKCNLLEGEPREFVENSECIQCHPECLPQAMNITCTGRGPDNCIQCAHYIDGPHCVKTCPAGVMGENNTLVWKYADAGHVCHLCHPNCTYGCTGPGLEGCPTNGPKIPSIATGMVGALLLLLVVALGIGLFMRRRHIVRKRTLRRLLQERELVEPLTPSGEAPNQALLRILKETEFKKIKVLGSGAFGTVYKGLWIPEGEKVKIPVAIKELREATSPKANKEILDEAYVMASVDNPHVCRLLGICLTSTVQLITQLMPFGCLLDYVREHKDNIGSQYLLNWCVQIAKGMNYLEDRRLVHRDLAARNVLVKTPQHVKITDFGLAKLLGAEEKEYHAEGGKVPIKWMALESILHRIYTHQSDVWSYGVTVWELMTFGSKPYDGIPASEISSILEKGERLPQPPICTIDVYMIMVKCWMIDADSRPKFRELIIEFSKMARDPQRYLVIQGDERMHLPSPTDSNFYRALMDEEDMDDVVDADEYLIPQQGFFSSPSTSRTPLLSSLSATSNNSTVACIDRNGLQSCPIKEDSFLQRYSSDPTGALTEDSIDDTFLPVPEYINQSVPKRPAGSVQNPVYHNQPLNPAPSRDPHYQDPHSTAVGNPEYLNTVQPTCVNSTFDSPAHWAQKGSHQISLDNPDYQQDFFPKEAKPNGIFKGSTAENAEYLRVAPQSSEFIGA

Row | SMILES | Kd [1] [nM] | Kd [2] [nM] | IC50 [3] [nM] | IC50 [4] [nM] | IC50 [5] [nM] | further results
1 | CC1(C)OC[C@H](COc2cc3ncc(C#N)c(Nc4ccc(OCc5cccc(F)c5)c(Cl)c4)c3cc2NC(=O)C[C@@H]2CCSS2)O1 (single isomer, unassigned; isomer 1) [80 isomer 1] | 1 to 99 | 1 to 99 |  |  |  | 
2 | CC1(C)OC[C@@H](COc2cc3ncc(C#N)c(Nc4ccc(OCc5cccc(F)c5)c(Cl)c4)c3cc2NC(=O)CC2CCSS2)O1 (single isomer, unassigned; isomer 1) [84 isomer 1] | 1 to 99 | 1 to 99 |  |  |  | 
3 | CC1(C)OC[C@H](COc2cc3ncc(C#N)c(Nc4ccc(OCc5cccc(F)c5)c(Cl)c4)c3cc2NC(=O)C[C@H]2CCSS2)O1 (single isomer, unassigned; isomer 2) [80 isomer 2] | 1 to 99 | 1 to 99 |  |  |  | 
4 | CC1(C)OC[C@H](COc2cc3ncc(C#N)c(Nc4ccc(OCc5cccc(F)c5)c(Cl)c4)c3cc2NC(=O)CC2CCSS2)O1 (single isomer, unassigned; isomer 2) [84 isomer 2] | 1 to 99 | 1 to 99 |  |  |  | 
5 | CCOc1cc2ncc(C#N)c(Nc3ccc(F)c(Cl)c3)c2cc1NC(=O)C1CSSC1 [Example 31, N-(4-((3-Chloro-4-fluorophenyl)amino)-3-cyano-7-ethoxyquinolin-6-yl)-1,2-dithiolane-4-carboxamide] |  |  | 100 to 999 | 100 to 999 | 100 to 999 | 
6 | CCOc1cc2ncc(C#N)c(Nc3ccc(F)c(Cl)c3)c2cc1NC(=O)C1CCSS1 (stereo not shown) [Example 33, N-(4-((3-Chloro-4-fluorophenyl)amino)-3-cyano-7-ethoxyquinolin-6-yl)-1,2-dithiolane-3-carboxamide] | 1 to 99 | 1 to 99 |  | 1 to 99 |  | 
7 | CCOc1cc2ncc(C#N)c(Nc3ccc(OCc4cccc(F)c4)c(Cl)c3)c2cc1NC(=O)C(CSC(C)=O)CSC(C)=O [Example 34] | 1 to 99 | 1 to 99 | 100 to 999 | 1 to 99 | 100 to 999 | Kd [6]: 100 to 999 nM; Kd [7]: > 10000 nM; Kd [8]: 100 to 999 nM
8 | CCOc1cc2ncc(C#N)c(Nc3ccc(OCc4cccc(F)c4)c(Cl)c3)c2cc1NC(=O)C1CSSC1 [Example 36, N-(4-((3-Chloro-4-((3-fluorobenzyl)oxy)phenyl)amino)-3-cyano-7-ethoxyquinolin-6-yl)-1,2-dithiolane-4-carboxamide] | 1 to 99 | 1 to 99 | 100 to 999 | 1 to 99 | 100 to 999 | Kd [6]: 1 to 99 nM; Kd [7]: > 10000 nM; Kd [8]: 1 to 99 nM
9 | CCOc1cc2ncc(C#N)c(Nc3ccc(F)c(Cl)c3)c2cc1NC(=O)CC(CCSCc1ccccc1)SCc1ccccc1 (stereo not shown) [Example 38, 3,5-Bis(benzylthio)-N-(4-((3-chloro-4-fluorophenyl)amino)-3-cyano-7-ethoxyquinolin-6-yl)pentanamide] |  |  |  | 1000 to 10000 |  | 
10 | CCOc1cc2ncc(C#N)c(Nc3ccc(F)c(Cl)c3)c2cc1NC(=O)CC1CCSS1 (stereo not shown) [Example 39, N-(4-((3-Chloro-4-fluorophenyl)amino)-3-cyano-7-ethoxyquinolin-6-yl)-2-(1,2-dithiolan-3-yl)acetamide] |  |  |  | 100 to 999 |  | 
11 | CCOc1cc2ncc(C#N)c(Nc3ccc(F)c(Cl)c3)c2cc1NC(=O)CCCCC1CCSS1 (stereo not shown) [Example 42, N-(4-(3-Chloro-4-fluorophenylamino)-3-cyano-7-ethoxyquinolin-6-yl)-5-(1,2-dithiolan-3-yl)pentanamide] |  |  | 100 to 999 | 100 to 999 | 100 to 999 | 
12 | CCOc1cc2ncc(C#N)c(Nc3ccc(OCc4cccc(F)c4)c(Cl)c3)c2cc1NC(=O)CCCCC1CCSS1 (stereo not shown) [Example 44] |  |  |  | 1 to 99 |  | 
13 | Cc1ccc(Oc2ccc(Nc3c(C#N)cnc4ccc(NC(=O)CC5CCSS5)cc34)cc2C)cn1 (stereo not shown) [Example 55, N-(3-Cyano-4-((3-methyl-4-((6-methylpyridin-3-yl)oxy)phenyl)amino)quinolin-6-yl)-2-(1,2-dithiolan-3-yl)acetamide] |  |  |  |  |  | IC50 ([3]; read-out: IC50 Activity level EGFR WT, KinaseSeeker, Table 18): > 10000 nM; IC50 [4, 9]: > 10000 nM; IC50 ([5]; read-out: IC50 Activity level HER2, KinaseSeeker, Table 18): > 10000 nM
14 | CC(=O)Nc1ccc2ncc(C#N)c(Nc3ccc(OCc4cccc(F)c4)c(Cl)c3)c2c1 [Example 58, N-(4-((3-Chloro-4-((3-fluorobenzyl)oxy)phenyl)amino)-3-cyanoquinolin-6-yl)acetamide] |  |  |  |  |  | IC50 [4, 9]: > 10000 nM
15 | CC1(C)OC[C@H](COc2cc3ncc(C#N)c(Nc4ccc(OCc5cccc(F)c5)c(Cl)c4)c3cc2NC(=O)CC2CCSS2)O1 (stereo partly drawn) [Example 79, N-(4-((3-Chloro-4-((3-fluorobenzyl)oxy)phenyl)amino)-3-cyano-7-(((S)-2,2-dimethyl-1,3-dioxolan-4-yl)methoxy)quinolin-6-yl)-2-(1,2-dithiolan-3-yl)acetamide] | 1 to 99 | 1 to 99 |  |  |  | 
16 | COc1cc2ncnc(Nc3ccc(Oc4ccc(C)nc4)c(C)c3)c2cc1NC(=O)C1CSSC1 [Example 104, N-(7-Methoxy-4-((3-methyl-4-((6-methylpyridin-3-yl)oxy)phenyl)amino)quinazolin-6-yl)-1,2-dithiolane-4-carboxamide] |  |  | 100 to 999 | 100 to 999 | 100 to 999 | 
17 | COc1cc2ncnc(Nc3ccc(OCc4cccc(F)c4)c(Cl)c3)c2cc1NC(=O)C1CSSC1 [Example 110, N-(4-((3-Chloro-4-((3-fluorobenzyl)oxy)phenyl)amino)-7-methoxyquinazolin-6-yl)-1,2-dithiolane-4-carboxamide] |  |  | 1 to 99 | 1 to 99 |  | 

Now from value to compound, other results behind:

Row | Kd [1] [nM] | Kd [2] [nM] | IC50 [3] [nM] | IC50 [4] [nM] | IC50 [5] [nM] | SMILES | further results
18 |  |  | 100 to 999 | 1 to 99 |  | CC(=O)SCC(CSC(C)=O)C(=O)Nc1ccc2ncc(C#N)c(Nc3ccc(OCc4cccc(F)c4)c(Cl)c3)c2c1 [Example 60, S,S′-(2-((4-((3-Chloro-4-((3-fluorobenzyl)oxy)phenyl)amino)-3-cyanoquinolin-6-yl)carbamoyl)propane-1,3-diyl)diethanethioate] | 
19 | 1 to 99 | 1 to 99 | 100 to 999 | 1 to 99 | 100 to 999 | N#Cc1cnc2cc(OC[C@H](O)CO)c(NC(=O)C[C@H]3CCSS3)cc2c1Nc1ccc(OCc2cccc(F)c2)c(Cl)c1 [Example 81, N-(4-((3-Chloro-4-((3-fluorobenzyl)oxy)phenyl)amino)-3-cyano-7-((R)-2,3-dihydroxypropoxy)quinolin-6-yl)-2-(1,2-dithiolan-3S-yl) acetamide] | Kd [6]: 1 to 99 nM; Kd [7]: > 10000 nM; Kd [8]: 1 to 99 nM
20 | 1 to 99 | 1 to 99 | 100 to 999 | 1 to 99 | 100 to 999 | N#Cc1cnc2cc(OC[C@H](O)CO)c(NC(=O)CC3CCSS3)cc2c1Nc1ccc(OCc2cccc(F)c2)c(Cl)c1 (stereo partly drawn) [Example 82, N-(4-((3-Chloro-4-((3-fluorobenzyl)oxy)phenyl)amino)-3-cyano-7-((R)-2,3-dihydroxypropoxy)quinolin-6-yl)-2-(1,2-dithiolan-3-yl)acetamide] | Kd [6]: 1 to 99 nM; Kd [7]: > 10000 nM; Kd [8]: 1 to 99 nM
21 | 1 to 99 | 1 to 99 | 100 to 999 | 1 to 99 | 100 to 999 | N#Cc1cnc2cc(OC[C@@H](O)CO)c(NC(=O)C[C@@H]3CCSS3)cc2c1Nc1ccc(OCc2cccc(F)c2)c(Cl)c1 [Example 85, N-(4-((3-Chloro-4-((3-fluorobenzyl)oxy)phenyl)amino)-3-cyano-7-((S)-2,3-dihydroxypropoxy)quinolin-6-yl)-2-(1,2-dithiolan-3R-yl)acetamide] | Kd [6]: 1 to 99 nM; Kd [7]: > 10000 nM; Kd [8]: 1 to 99 nM
22 | 1 to 99 | 1 to 99 | 100 to 999 | 1 to 99 | 100 to 999 | N#Cc1cnc2cc(OC[C@@H](O)CO)c(NC(=O)C[C@H]3CCSS3)cc2c1Nc1ccc(OCc2cccc(F)c2)c(Cl)c1 [Example 86, N-(4-((3-Chloro-4-((3-fluorobenzyl)oxy)phenyl)amino)-3-cyano-7-((S)-2,3-dihydroxypropoxy)quinolin-6-yl)-2-(1,2-dithiolan-3S-yl)acetamide] | Kd [6]: 1 to 99 nM; Kd [7]: > 10000 nM; Kd [8]: 1 to 99 nM
23 | 1 to 99 | 1 to 99 |  |  |  | CC(=O)SCC(CSC(C)=O)C(=O)Nc1cc2c(Nc3ccc(OCc4cccc(F)c4)c(Cl)c3)c(C#N)cnc2cc1OC[C@H](O)CO [Example 94, (R)—S,S′-(2-((4-((3-Chloro-4-((3-fluorobenzyl)oxy)phenyl)amino)-3-cyano-7-(2,3-dihydroxypropoxy)quinolin-6-yl)carbamoyl)propane-1,3-diyl)diethanethioate] | 
24 |  |  | 1 to 99 | 1 to 99 |  | COc1cc2ncnc(Nc3ccc(OCc4cccc(F)c4)c(Cl)c3)c2cc1NC(=O)C(CSC(C)=O)CSC(C)=O [Example 109, S,S′-(2-((4-((3-Chloro-4-((3-fluorobenzyl)oxy)phenyl)amino)-7-methoxyquinazolin-6-yl)carbamoyl)propane-1,3-diyl)diethanethioate] | 
